{"source": "patent US11312722B2", "about": "“Hsp90 inhibitors and uses thereof” (TRUSTEES OF BOSTON UNIVERSITY, priority 2019, dated 2022)", "key": {"C. albicans Hsp90 NBD": {"target": "C. albicans Hsp90 NBD (Candida albicans (strain SC5314 / ATCC MYA-2876) (Yeast), UniProt P46598)", "sequence (P46598 1-240 limits assumed)": "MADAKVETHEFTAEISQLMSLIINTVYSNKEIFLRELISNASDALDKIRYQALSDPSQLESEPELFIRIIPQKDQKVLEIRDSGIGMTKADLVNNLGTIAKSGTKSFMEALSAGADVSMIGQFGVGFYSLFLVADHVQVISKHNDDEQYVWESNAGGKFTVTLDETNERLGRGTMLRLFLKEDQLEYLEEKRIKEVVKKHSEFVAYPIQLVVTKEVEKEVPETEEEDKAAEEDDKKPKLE", "format": "binding", "settings": "equimolar protein and ligand (10 μM)", "experimental": "Using recombinant proteins, assay-independent nanomolar inhibitory constants (Ki) were defined for these compounds. Binding of the compounds to their relevant NBD by thermal shift denaturation assays was also confirmed. Thermal shift assays were performed under saturating ligand conditions, i.e. equimolar concentrations (10 μM) of protein and ligand. As a result, they can provide only qualitative evidence of target binding, but not a quantitative measurement of ligand affinity. […] […]. C. neoformans or C. albicans Hsp90 NBD was combined with equimolar concentrations of the indicated bioactive inhibitors (10 μM) or DMSO control, in technical triplicates. The protein was heated from 25 to 98.6° C. at 0.2° C./5 s in the presence of Sypro Orange dye. All compounds induce an increase in melting temperature relative to the DMSO control, reported as ΔTm.\nProtein thermal shift assays. Thermal melting curves were determined using a Protein Thermal Shift Kit (ThermoFisher #4462263), employing a CFX384 Real-Time PCR System (Bio-Rad, C1000 Touch Thermal Cycler). […] Temperature shift, ΔTm, was recorded as the difference between the Tm of the fungal Hsp90 NBD with compound minus Tm of the protein without compound."}, "C. neoformans Hsp90 NBD": {"target": "C. neoformans Hsp90 NBD (Cryptococcus neoformans, UniProt J9VVA4)", "sequence (J9VVA4 1-699)": "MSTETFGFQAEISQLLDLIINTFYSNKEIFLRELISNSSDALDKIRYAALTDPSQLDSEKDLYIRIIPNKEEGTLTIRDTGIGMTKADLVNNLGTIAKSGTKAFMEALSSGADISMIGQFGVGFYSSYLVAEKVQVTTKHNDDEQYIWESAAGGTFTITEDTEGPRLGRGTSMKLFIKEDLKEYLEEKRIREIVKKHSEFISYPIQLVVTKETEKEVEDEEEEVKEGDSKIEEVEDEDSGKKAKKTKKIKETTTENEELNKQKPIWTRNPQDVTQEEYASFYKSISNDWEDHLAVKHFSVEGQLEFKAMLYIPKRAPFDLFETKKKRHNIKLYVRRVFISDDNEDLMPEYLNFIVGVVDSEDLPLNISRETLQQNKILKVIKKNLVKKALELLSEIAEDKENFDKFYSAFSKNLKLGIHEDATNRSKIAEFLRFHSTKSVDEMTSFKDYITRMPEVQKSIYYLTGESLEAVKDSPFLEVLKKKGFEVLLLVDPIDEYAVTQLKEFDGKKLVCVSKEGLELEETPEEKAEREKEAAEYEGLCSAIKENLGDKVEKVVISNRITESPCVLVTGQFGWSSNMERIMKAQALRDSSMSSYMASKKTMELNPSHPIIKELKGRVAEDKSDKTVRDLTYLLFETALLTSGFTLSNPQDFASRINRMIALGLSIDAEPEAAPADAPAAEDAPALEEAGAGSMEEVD", "experiment": "biochemical", "format": "binding", "settings": "SPR, 25° C., read-out: Biacore KD", "experimental": "SPR assays. For SPR experiments, Hsp90 NBD expression constructs were modified to encode a C-terminal AviTag™ for site-specific on-column biotinylation with a BirA biotin-ligase kit (Avidity LLC; BirA-500). SPR experiments were performed on a Biacore T200 instrument at 25° C. Biotinylated Hsp90 NBD was diluted to 40 μg/mL and immobilized on a streptavidin chip (Sensor Chip SA, GE Healthcare) at a density of 2000-2500 response units (RU) on the biosensor surface. […] Resulting sensorgrams were analyzed with a fit to a 1:1 binding model, using BIA evaluation software."}, "[1]": {"test_system": "C. neoformans (Strain H99)", "experiment": "Antifungal sensitivity testing (MIC), C. neoformans H99", "format": "cell-based"}, "[2]": {"test_system": "C. albicans clinical isolate (CaCi2)", "format": "cell-based", "settings": "moderately fluconazole-resistant clinical isolate of C. albicans (CaCi2), 8 μg/mL fluconazole", "experimental": "(§1) Color scale bar: no growth inhibition (green) to complete inhibition (black). Each shaded box represents the mean of technical duplicates. The experiment was repeated as an independent biological replicate to confirm results.\n(§2) Each shaded box represents the mean of technical duplicates. Relative viable cell number was monitored by standard dye reduction assay after 3-hr incubation with resazurin at 37° C. FIG. 6B: Following exposure to compounds, aliquots of the culture in each well were spotted onto compound-free YPD agar and plates incubated at 30° C. for an additional 24 hours before imaging to assess viability. The entire experiment consisting of growth in liquid culture followed by spotting onto YPD agar was repeated once.\nYeast strains and culture conditions. Strains used in this study were C. albicans CaCi2 (clinical isolate 2), [58] SC5314, [59] and C. neoformans H99. […] Active cultures were maintained on solid (2% agar) yeast extract peptone (YPD, 1% yeast extract, 2% bactopeptone, 2% glucose) at 4° C. for no more than one month.\n(§3) Antifungal sensitivity testing. […] Each compound was tested in duplicate in at least two independent experiments. […] Plates were photographed after 24 h of incubation at 30° C."}, "[3]": {"test_system": "C. albicans clinical isolate (CaCi2)", "experiment": "Fungicidal activity: spotting of MIC cultures onto compound-free YPD agar", "format": "cell-based", "settings": "C. albicans CaCi2, spotted on YPD agar after 48 h exposure", "experimental": "as §1, §2, §3"}}, "data": [{"smiles": "Cn1nc(-c2ccc(OC(F)(F)F)cc2)cc1Nc1cc(O)cc(O)c1C(=O)N1Cc2ccccc2C1", "note": "[Compound 130, 4-(2,3-Dihydro-1H-isoindole-2-carbonyl)-5-((1-methyl-3-(4-(trifluoromethoxy)phenyl)-1H-pyrazol-5-yl)amino)benzene-1,3-diol]", "values": [{"measurement": "C. albicans NBD ΔTm", "setting": "C. albicans Hsp90 NBD", "result": 9, "unit": "°C"}, {"measurement": "Kd", "setting": "C. neoformans Hsp90 NBD", "result": 7, "unit": "nM"}, {"measurement": "MIC80", "setting": "[1]; Cryptococcus neoformans, read-out: C. neo MIC80", "result": "> 25", "unit": "µM"}, {"measurement": "MIC90", "setting": "[1]; Cryptococcus neoformans, read-out: C. neo MIC90", "result": "> 25", "unit": "µM"}, {"measurement": "C. neo Active (cells)", "setting": "[1]; Yes/No call", "result": "No"}, {"measurement": "MIC in combination with fluconazole", "setting": "[2]", "result": 12.5, "unit": "µM"}, {"measurement": "fungicidal activity in combination with fluconazole", "setting": "[3]", "result": "converted the fungistatic activity of fluconazole to fungicidal"}]}]}
